What was measured:
[1] = assay type: physicochemical; conditions: classified from Log P
Source text: As used herein, a “partition coefficient” is defined as the ratio of concentrations of an un-ionized compound between solutions of water and octanol. To measure the partition coefficient of ionizable solutes, the pH of the aqueous phase is adjusted such that the predominant form of the compound is un-ionized. The logarithm of the ratio of the concentrations of the un-ionized solute in the solvents is referred to herein as log P or log K ow.
As noted herein, the octanol-water partition coefficient may be used to identify the cuticular penetration of a particular active ingredient. One factor in the relative speed through which any insecticide acts is the insecticide's ability to cross the insect cuticle. A determining factor for cuticle penetration is Log K ow, also known as Log P. Log K ow (Log P) is the octanol-water partition coefficient for a neutral molecule. Log P is used hereinfurther, but, as noted above, the term is synonymous with Log K ow. As previously noted, the cuticular penetration of any particular active ingredient as against a plant cuticle is not indicative of that same active ingredient's ability to penetrate an insect cuticle.
The cuticular penetration of a compound is classified as “INTERMEDIATE” when the Log P value is between about 2.0 and about 4.0.

[2] = test system: Musca domestica, susceptible strain WHO(N); test: Contact efficacy against houseflies on filter papers in glass dishes; assay type: in vivo; conditions: % a.i. conc. in acetone on filter papers, Table 97
Procedure: Male Musca domestica, susceptible strain WHO(N), were used.
A solution of the active ingredient in acetone was prepared. A concentration row was made. After evaporation of the acetone (30′), the dishes were closed by a glass lid and transferred into the test room. One day later twenty flies, anaesthetized with CO2, are counted into each dish. At regular intervals, knock down was recorded (cumulatively). Each test consisted of one replicate. […]

[3] = test system: Musca domestica, susceptible strain WHO(N); test: Efficacy of formulations on surfaces (glazed/unglazed tiles), house flies, continuous exposure; assay type: in vivo; conditions: strain WHO(N) susceptible, acetone solutions on glazed tiles, mean of three replicates
Procedure: A flat fan nozzle (type SS 8003-E) in a spray cabin was moved automatically over a defined area where the solutions were sprayed very evenly onto the surfaces. The formulation was mixed with water to give a concentration which corresponded to the desired quantity of a.i./m^2. A defined quantity of this solution was sprayed onto the area (nominal 350 liter/ha=0.77 ml per surface).
All surfaces were provided with talcum-coated glass rings (diameter 9.5 cm, height 5.5 cm) one day later.
The test insects were anesthetized with CO2, 20 individuals were placed onto the treated surfaces and the glass ring was covered with wire gauze ring.
Knock down was determined after 15 and 30′, 1, 2, 4 and 6 hours, mortality after 1 day exposure.
Each test consisted of at least one replicate and any additional replicates are noted.
Test Insects: House flies (Musca domestica) of both sexes, susceptible strain WHO(N) and resistant strain Reichswald
Evaluation: Mortality was evaluated cumulatively at different times. […]
Test Insects: Culex quinquefasciatus (adults) (3 minutes exposure time according to USDA Petri Dish Method), Musca domestica (adults), susceptible and resistant strain, Blattella germanica (males), Cimex lectularius (adults) (all: continuous exposure time)
Application: The EC formulation (diluted with water 1:9) were applied as 0.85 ml solutions onto glazed tiles (15 cm×15 cm)
Evaluation: Knock down after 15, and 30 minutes, 1, 2, 3, 4, 6 and 24 hours (mortality)
Test Insects: Culex quinquefasciatus (adults, susceptible) (3 minutes exposure time according to USDA Petri Dish Method), Musca domestica (adults, susceptible and resistant), Blattella germanica (males, susceptible) (both: continuous exposure time)
Formulations: Insecticide with or without 10% Compound A (as EC), to be diluted with water (1 part formulation+9 parts water)
Evaluation: Knock down after 3, 9 (mosquitoes only), 15, and 30 minutes, 1, 2, 3, 4 and 24 hours (mortality) […]

| SMILES | Likelihood of Direct Insect Cuticular Penetration [1] | % knock down after ([2]; 15′) | % knock down after ([2]; 30′) | % knock down after ([2]; 1 h) | % knock down after ([2]; 1.5 h) | % knock down after ([2]; 2 h) | % knock down after ([2]; 3 h) | % knock down after ([2]; 4 h) | % knock down after ([2]; 6 h) | % knock down after ([2]; 1 d) | % Mortality after ([3]; 15′) | % Mortality after ([3]; 30′) | % Mortality after ([3]; 1 h) | % Mortality after ([3]; 2 h) | % Mortality after ([3]; 3 h) | % Mortality after ([3]; 24 h) |
| --- | --- | --- | --- | --- | --- | --- | --- | --- | --- | --- | --- | --- | --- | --- | --- | --- |
| CCOP(=S)(OCC)Oc1cc(C)nc(C(C)C)n1 [diazinon] | Intermediate (classified as “INTERMEDIATE” when the Log P value is between about 2.0 and about 4.0) | – | – | – | – | – | – | – | – | – | – | – | – | – | – | – |
| CC1(C)[C@H](C(=O)O[C@H](C#N)c2cccc(Oc3ccccc3)c2)[C@@H]1C=C(Br)Br [0.0000128% DTM] | – | 0% | 0% | 0% | 0% | 0% | 0% | 0% | 15% | 70% | – | – | – | – | – | – |
| CC1(C)[C@H](C(=O)O[C@H](C#N)c2cccc(Oc3ccccc3)c2)[C@@H]1C=C(Br)Br [0.001% DTM] | – | – | – | – | – | – | – | – | – | – | 2% | 18% | 58% | 80% | 88% | 92% |
| CC1(C)[C@H](C(=O)O[C@H](C#N)c2cccc(Oc3ccccc3)c2)[C@@H]1C=C(Br)Br [0.000064% DTM] | – | 0% | 0% | 0% | 0% | 0% | 0% | 0% | 15% | 80% | – | – | – | – | – | – |
| CC1(C)C(C=C(Br)Br)C1C(=O)OC(C#N)c1cccc(Oc2ccccc2)c1 (centres unmarked) [0.0016% DTM] | – | 0% | 5% | 70% | 90% | 100% | 100% | 100% | 100% | 95% | – | – | – | – | – | – |
| CCOP(=S)(OCC)Oc1nc(Cl)c(Cl)cc1Cl [chlorpyrifos] | Fast (classified as “FAST” when it has a Log P value of about >4.0) | – | – | – | – | – | – | – | – | – | – | – | – | – | – | – |
| CC1(C)[C@H](C(=O)O[C@H](C#N)c2cccc(Oc3ccccc3)c2)[C@@H]1C=C(Br)Br [0.00032% DTM] | – | 0% | 0% | 5% | 30% | 50% | 65% | 65% | 60% | 95% | – | – | – | – | – | – |

Reference: US9028856B2, “Synergistic pesticide compositions” (priority 2008, dated 2015)
